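Assay format: 96-well plates, 48-hour exposure. Abbreviation: GI50, concentration required for 50% inhibition of growth.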 Calls of active or inactive are those of the source. No stated cut-off is given here; in the data, active = GI50 up to about 1.1 µM and inactive = higher.
Experiments:
Assay in all cases: NCI anticancer screen, dose series, 48 h
[1] = test system: M19-MEL
[2] = test system: EKVX
[3] = test system: DLD-1
[4] = test system: OVCAR-4
[5] = test system: LXFL 529
[6] = test system: NCI-H23
[7] = test system: SK-MEL-5
[8] = test system: SF-268
[9] = test system: KM12
[10] = test system: NCI-H226
[11] = test system: SF-539
[12] = test system: HOP-92
[13] = test system: RPMI-8226
[14] = test system: UACC-257
[15] = test system: HOP-18
[16] = test system: SK-OV-3
[17] = test system: KM-20L2
[18] = test system: SN12C
[19] = test system: OVCAR-8
[20] = test system: HCC 2998
[21] = test system: RXF 393
[22] = test system: SF-295
[23] = test system: HOP-62
[24] = test system: OVCAR-5
[25] = test system: MOLT-4
[26] = test system: HCT-116
[27] = test system: Malme-3M
[28] = test system: NCI-H460
[29] = test system: TK-10
[30] = test system: DMS-273
[31] = test system: HCT-15
[32] = test system: CCRF-CEM
[33] = test system: ACHN
[34] = test system: HL-60
[35] = test system: U-251
[36] = test system: CAKI-1
[37] = test system: SNB-75
[38] = test system: SK-MEL-2
[39] = test system: DMS-114
[40] = test system: A498
[41] = test system: SNB-78
[42] = test system: SK-MEL-28
[43] = test system: NCI-H522
[44] = test system: HT-29
[45] = test system: COLO 205
[46] = test system: SNB-19
[47] = test system: A549
[48] = test system: M14
[49] = test system: XF498
[50] = test system: UACC-62
[51] = test system: 786-0
[52] = test system: SW-620
[53] = test system: SR
[54] = test system: IGROV-1
[55] = test system: UO-31
[56] = test system: K562
[57] = test system: OVCAR-3
[58] = test system: LOX IMVI

COc1ccc([C@@H]2CC(=O)NCCCNCCCCNCCCN2)cc1
GI50 [1]: > 100 µM (inactive) | GI50 [2]: > 100 µM (inactive) | GI50 [3]: > 100 µM (inactive) | GI50 [4]: > 100 µM (inactive) | GI50 [5]: > 100 µM (inactive) | GI50 [6]: > 100 µM (inactive) | GI50 [7]: > 100 µM (inactive) | GI50 [8]: > 100 µM (inactive) | GI50 [9]: > 100 µM (inactive) | GI50 [10]: 79.6 µM (inactive) | GI50 [11]: > 100 µM (inactive) | GI50 [12]: > 100 µM (inactive) | GI50 [13]: > 100 µM (inactive) | GI50 [14]: > 100 µM (inactive) | GI50 [15]: 59.6 µM (inactive) | GI50 [16]: > 100 µM (inactive) | GI50 [17]: > 100 µM (inactive) | GI50 [18]: > 100 µM (inactive) | GI50 [19]: > 100 µM (inactive) | GI50 [20]: > 100 µM (inactive) | GI50 [21]: > 100 µM (inactive) | GI50 [22]: > 100 µM (inactive) | GI50 [23]: > 100 µM (inactive) | GI50 [24]: > 100 µM (inactive) | GI50 [25]: > 100 µM (inactive) | GI50 [26]: > 100 µM (inactive) | GI50 [27]: > 100 µM (inactive) | GI50 [28]: > 100 µM (inactive) | GI50 [29]: > 100 µM (inactive) | GI50 [30]: > 100 µM (inactive) | GI50 [31]: > 100 µM | GI50 [32]: > 100 µM (inactive) | GI50 [33]: > 100 µM (inactive) | GI50 [34]: > 100 µM (inactive) | GI50 [35]: > 100 µM (inactive) | GI50 [36]: > 100 µM (inactive) | GI50 [37]: > 100 µM (inactive) | GI50 [38]: > 100 µM (inactive) | GI50 [39]: > 100 µM (inactive) | GI50 [40]: > 100 µM (inactive) | GI50 [41]: > 100 µM (inactive) | GI50 [42]: > 100 µM (inactive) | GI50 [43]: 30.8 µM (inactive) | GI50 [44]: > 100 µM (inactive) | GI50 [45]: > 100 µM (inactive) | GI50 [46]: > 100 µM (inactive) | GI50 [47]: > 100 µM (inactive) | GI50 [48]: > 100 µM (inactive) | GI50 [49]: > 100 µM (inactive) | GI50 [50]: > 100 µM (inactive) | GI50 [51]: > 100 µM (inactive) | GI50 [52]: > 100 µM (inactive) | GI50 [53]: > 100 µM (inactive) | GI50 [54]: > 100 µM (inactive) | GI50 [55]: > 100 µM (inactive) | GI50 [56]: > 100 µM (inactive)

O=C(Nc1ccc(Cl)cc1C(F)(F)F)C(=O)C1CCCS1(=O)=O (centres undefined)
GI50 [1]: > 100 µM (inactive) | GI50 [2]: > 100 µM (inactive) | GI50 [3]: > 100 µM (inactive) | GI50 [4]: > 100 µM (inactive) | GI50 [5]: > 100 µM (inactive) | GI50 [6]: > 100 µM (inactive) | GI50 [57]: > 100 µM (inactive) | GI50 [7]: > 100 µM (inactive) | GI50 [8]: > 100 µM (inactive) | GI50 [9]: > 100 µM (inactive) | GI50 [10]: > 100 µM (inactive) | GI50 [11]: > 100 µM (inactive) | GI50 [58]: > 100 µM (inactive) | GI50 [12]: > 10 µM (inactive) | GI50 [13]: > 100 µM (inactive) | GI50 [14]: > 100 µM (inactive) | GI50 [15]: > 100 µM (inactive) | GI50 [17]: > 100 µM (inactive) | GI50 [18]: > 100 µM (inactive) | GI50 [19]: > 100 µM (inactive) | GI50 [20]: > 100 µM (inactive) | GI50 [21]: > 100 µM (inactive) | GI50 [22]: > 100 µM (inactive) | GI50 [23]: > 100 µM (inactive) | GI50 [24]: > 100 µM (inactive) | GI50 [25]: > 100 µM (inactive) | GI50 [26]: > 100 µM (inactive) | GI50 [27]: > 100 µM (inactive) | GI50 [28]: > 100 µM (inactive) | GI50 [29]: > 100 µM (inactive) | GI50 [31]: > 100 µM | GI50 [32]: > 100 µM (inactive) | GI50 [33]: > 100 µM (inactive) | GI50 [34]: > 100 µM (inactive) | GI50 [35]: > 100 µM (inactive) | GI50 [36]: > 100 µM (inactive) | GI50 [37]: > 100 µM (inactive) | GI50 [39]: > 100 µM (inactive) | GI50 [40]: > 100 µM (inactive) | GI50 [41]: > 100 µM (inactive) | GI50 [42]: > 100 µM (inactive) | GI50 [44]: > 100 µM (inactive) | GI50 [45]: > 100 µM (inactive) | GI50 [46]: > 100 µM (inactive) | GI50 [47]: > 100 µM (inactive) | GI50 [48]: > 100 µM (inactive) | GI50 [49]: > 100 µM (inactive) | GI50 [50]: > 100 µM (inactive) | GI50 [51]: > 100 µM (inactive) | GI50 [52]: > 10 µM (inactive) | GI50 [53]: > 100 µM (inactive) | GI50 [54]: > 10 µM (inactive) | GI50 [56]: > 100 µM (inactive)

From ChEMBL document CHEMBL1201862, “PubChem BioAssay data set” (2004)
